Laboratory results reported in article PMC8272242 (Molecules, 2021).

Experiment: thermal stability during DSC measurements (FTIR-ATR and weight before and after)
Format: physicochemical
Details: across the range of temperatures used in the DSC study (solid and melt)
Method: No polymorphs or solvates have so far been reported. However, in order to confirm that no crystal phase or pseudo-polymorphic transitions occurred during solubility measurements, the sediments collected after flask-shake experiments were analyzed using DSC and FTIR-ATR techniques. The results of these measurements are summarized in supplementary materials in Figures S1 and S2. The solvate formation can be identified by the absorption band shifts on the IR spectra. With DSC thermograms, the formation of a new crystal form would be associated with polymorphic transformations or solvate degradation found prior to the melting peak. Both IR spectra and DSC thermograms recorded for sediments were similar to pure phenacetin. […] As documented in Figure 1, both spectra are nearly identical as indicated by the differential plot.
It is notable that the temperature trends are linear, and it is reasonable to expect that a change of heat capacity values associated with melting ∆Cp would adopt a linear temperature relationship.
The calibration was performed using zinc and indium standards.

For CCOc1ccc(NC(C)=O)cc1 [phenacetin, N-(4-ethoxyphenyl)acetamide], the thermal stability was “stable”.
